Measured values from patent US11339446B2, “Biomarker for measurement of response and prognosis of triple-negative breast cancer to anticancer agent” (SEOUL NATIONAL UNIVERSITY R&DB FOUNDATION, priority 2017, dated 2022).
pIC50: −log10 of the molar value.

Legend:
Type in all cases: cell-based
[1] = test system: HCC38 cell line; experiment: CellTiter-Glo cell viability assay after docetaxel, HCC38
Protocol: (§1) MDA-MB-231, DU4475, MDA-MB-436, and MDA-MB-157 cell lines were purchased from the ATCC. MDA-MB-468, HCC1937, HS578T, and HCC38 cell lines were obtained from the Korea Cell Bank. MDA-MB-157 cell line was cultured in a Leibovitz's L15 culture medium supplemented with 10% fetal bovine serum. The MDA-MB-436 cell line was cultured in a Leibovitz's L15 culture medium supplemented with 10% fetal bovine serum and 0.026 units/ml units insulin. The MDA-MB-231 cell line, the MDA-MB-468 cell line, and the HS578T cell line were each cultured in a DMEM culture medium supplemented with 10% fetal bovine serum in 5% CO2. The remaining cell lines were each cultured in a RPMI-1640 culture medium supplemented with 10% fetal bovine serum in 5% CO2.
(§2) In the present disclosure, docetaxel was used to find genes related to resistance to taxane-based neoadjuvant chemotherapy (NAC). Docetaxel was purchased at Sigma-Aldrich, and then, dissolved according to the instructions of the manufacturer. The cell lines were collected using trypsin treatment, counted with a hemocytometer, and plated for 14 hours at a density of 3,000 cells/well in a 96-well plate. Afterwards, the solvent was replaced with docetaxel at different concentrations (e.g., 0 nM, 0.01 nM, 0.1 nM, 1 nM, 10 nM, and 100 nM), 48 hours after exposure to docetaxel, cell viability experiments were performed using the CellTiter-Glo Luminescent Cell Viability Assay according to the protocol of the manufacture. The CellTiter-Glo Luminescent Cell Viability Assay is a method of determining the number of cells present in a culture medium depending on the amount of ATP in a culture medium. In summary, the same amount of 100 μl of CellTiter-Glo assay reagents were added to each well, incubated for 10 minutes at room temperature, and then, measured according to the luminometry. The experiment was repeated twice, and the 50% inhibitory concentration of each cell line was measured by non-linear regression analysis.

[2] = test system: DU4475 cell line; experiment: CellTiter-Glo cell viability assay after docetaxel, DU4475
Protocol: as §1, §2

[3] = test system: MDA-MB-468 cell line; experiment: CellTiter-Glo cell viability assay after docetaxel, MDA-MB-468
Protocol: as §1, §2

[4] = test system: HCC1937 cell line; experiment: CellTiter-Glo cell viability assay after docetaxel, HCC1937
Protocol: as §1, §2

[5] = test system: MDA-MB-231 cell line; experiment: CellTiter-Glo cell viability assay after docetaxel, MDA-MB-231
Protocol: as §1, §2

[6] = test system: MDA-MB-436 cell line; experiment: CellTiter-Glo cell viability assay after docetaxel, MDA-MB-436
Protocol: as §1, §2

[7] = test system: HS578T cell line; experiment: CellTiter-Glo cell viability assay after docetaxel, HS578T
Protocol: as §1, §2

[8] = test system: MDA-MB-157 cell line; experiment: CellTiter-Glo cell viability assay after docetaxel, MDA-MB-157; details: MDA-MB-15T
Protocol: as §1, §2

- pIC50 ([1]; Homo sapiens, HCC38, 48 hours exposure): < 7.00
- pIC50 ([3]; Homo sapiens, MDA-MB-468, 48 hours exposure): 8.74
- pIC50 ([4]; Homo sapiens, HCC1937, 48 hours exposure): < 7.00
- pIC50 ([5]; Homo sapiens, MDA-MB-231, 48 hours exposure): 7.54
- pIC50 ([6]; Homo sapiens, MDA-MB-436, 48 hours exposure): < 7.00
- pIC50 ([8]; Homo sapiens, MDA-MB-157, 48 hours exposure): < 7.00
SMILES: CC(=O)O[C@@]12CO[C@@H]1C[C@H](O)[C@@]1(C)C(=O)[C@H](O)C3=C(C)[C@@H](OC(=O)[C@H](O)[C@@H](NC(=O)OC(C)(C)C)c4ccccc4)C[C@@](O)([C@@H](OC(=O)c4ccccc4)[C@H]21)C3(C)C [Docetaxel, docetaxel]
- Survival fraction ([1]; HCC38, 50 nM): 0.57
- Survival fraction ([1]; HCC38, 100 nM): 0.53
- Survival fraction ([2]; DU4475, 50 nM): 0.37
- Survival fraction ([2]; DU4475, 100 nM): 0.27
- pIC50 ([2]; Homo sapiens, DU-4475, DU4475, 48 hours exposure): 7.94
- Survival fraction ([3]; MDA-MB-468, 50 nM): 0.27
- Survival fraction ([3]; MDA-MB-468, 100 nM): 0.26
- Survival fraction ([4]; HCC1937, 50 nM): 0.76
- Survival fraction ([4]; HCC1937, 100 nM): 0.70
- Survival fraction ([5]; MDA-MB-231, 50 nM): 0.47
- Survival fraction ([5]; MDA-MB-231, 100 nM): 0.35
- Survival fraction ([6]; MDA-MB-436, 50 nM): 0.81
- Survival fraction ([6]; MDA-MB-436, 100 nM): 0.75
- Survival fraction ([7]; 50 nM): 0.32
- Survival fraction ([7]; 100 nM): 0.29
- pIC50 ([7]; Homo sapiens, Hs-578T, 48 hours exposure): 7.96
- Survival fraction ([8]; 50 nM): 0.65
- Survival fraction ([8]; 100 nM): 0.65
